Data from paper PMC7377239, “Cardiovascular Effects of Polychlorinated Biphenyls and Their Major Metabolites” (Environmental Health Perspectives, 2020).
Like-named read-outs stand apart in the source and are kept apart here.

Test system: iCell cardiomyocytes (human iPSC-derived cardiomyocytes)
Test: Intracellular Ca2+ flux / beating parameters in iCell cardiomyocytes (FLIPR tetra), 90 min or 24 h
Format: cell-based
Conditions: 0.00 µM = 100.00; for activity at 0.01 µM / activity at 0.1 µM / activity at 1 µM / activity at 10 µM / activity at 100 µM: Homo sapiens, Cardiomyocyte
How it was run: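 Gelatin-plated iCell cardiomyocytes (5,000/well) were dye-loaded for 2 h at 37 °C, then exposed for 90 min or 24 h to PCBs/metabolites (5× plates at 0.05–500 µM; 0.5% DMSO final) in triplicate. Ca2+ flux was read for 100 s at 8 Hz and 37 °C. Peak height, frequency, spacing CV and decay/rise ratio were vehicle-normalized and fitted with a four-parameter logistic model, with POD set at 1 SD of vehicle.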

Clc1ccc(Cl)c(-c2c(Cl)ccc(Cl)c2Cl)c1Cl [(+)-PCB 136, 2,2′,3,3′,6,6′-hexachlorobiphenyl]
cm.amp.avg.24hrs (0.01 µM, 24hrs): 54.01 | cm.amp.cv.24hrs (0.01 µM, 24hrs): 158.80 | cm.amp.avg.24hrs (0.10 µM, 24hrs): 107.99 | cm.amp.cv.24hrs (0.10 µM, 24hrs): 72.89 | cm.bpm.24hrs (0.10 µM, 24hrs): 96.42 | cm.decay.rise.24hrs (0.10 µM, 24hrs): 106.79 | cm.spacing.cv.24hrs (0.10 µM, 24hrs): 105.08 | cm.amp.cv.24hrs (1.00 µM, 24hrs): 92.90 | cm.bpm.24hrs (1.00 µM, 24hrs): 94.51 | cm.decay.rise.24hrs (1.00 µM, 24hrs): 114.76 | cm.spacing.cv.24hrs (1.00 µM, 24hrs): 110.09 | cm.bpm.90min (10.00 µM, 90min): 82.76 | cm.decay.rise.90min (10.00 µM, 90min): 115.77 | cm.amp.avg.24hrs (10.00 µM, 24hrs): 0.00 | cm.amp.cv.24hrs (10.00 µM, 24hrs): 0.00 | cm.bpm.24hrs (10.00 µM, 24hrs): 0.00 | cm.decay.rise.24hrs (10.00 µM, 24hrs): 0.00 | cm.spacing.cv.24hrs (10.00 µM, 24hrs): 0.00 | activity at 0.01 µM (1.5 h, 0.01 µM, 90min, read-out: cm.amp.avg.90min): 106% | activity at 0.01 µM (1.5 h, 0.01 µM, 90min, read-out: cm.amp.cv.90min): 96.9% | activity at 0.01 µM (1.5 h, 0.01 µM, 90min, read-out: cm.bpm.90min): 97.8% | activity at 0.01 µM (1.5 h, 0.01 µM, 90min, read-out: cm.decay.rise.90min): 99% | activity at 0.01 µM (1.5 h, 0.01 µM, 90min, read-out: cm.spacing.cv.90min): 101% | activity at 0.1 µM (1.5 h, 0.10 µM, 90min, read-out: cm.amp.avg.90min): 107% | activity at 0.1 µM (1.5 h, 0.10 µM, 90min, read-out: cm.amp.cv.90min): 112% | activity at 0.1 µM (1.5 h, 0.10 µM, 90min, read-out: cm.bpm.90min): 96.5% | activity at 0.1 µM (1.5 h, 0.10 µM, 90min, read-out: cm.decay.rise.90min): 99.7% | activity at 0.1 µM (1.5 h, 0.10 µM, 90min, read-out: cm.spacing.cv.90min): 115% | activity at 1 µM (1.5 h, 1.00 µM, 90min, read-out: cm.amp.avg.90min): 107% | activity at 1 µM (1.5 h, 1.00 µM, 90min, read-out: cm.amp.cv.90min): 120% | activity at 1 µM (1.5 h, 1.00 µM, 90min, read-out: cm.bpm.90min): 87.8% | activity at 1 µM (1.5 h, 1.00 µM, 90min, read-out: cm.decay.rise.90min): 107% | activity at 1 µM (1.5 h, 1.00 µM, 90min, read-out: cm.spacing.cv.90min): 107% | activity at 10 µM (1.5 h, 10.00 µM, 90min, read-out: cm.amp.avg.90min): 94.4% | activity at 10 µM (1.5 h, 10.00 µM, 90min, read-out: cm.amp.cv.90min): 114% | activity at 10 µM (1.5 h, 10.00 µM, 90min, read-out: cm.spacing.cv.90min): 118% | activity at 100 µM (1.5 h, 100.00 µM, 90min, read-out: cm.amp.avg.90min): 0% | activity at 100 µM (1.5 h, 100.00 µM, 90min, read-out: cm.amp.cv.90min): 0% | activity at 100 µM (1.5 h, 100.00 µM, 90min, read-out: cm.bpm.90min): 0% | activity at 100 µM (1.5 h, 100.00 µM, 90min, read-out: cm.decay.rise.90min): 0% | activity at 100 µM (1.5 h, 100.00 µM, 90min, read-out: cm.spacing.cv.90min): 0% | activity at 0.01 µM (24 h, 0.01 µM, 24hrs, read-out: cm.bpm.24hrs): 105% | activity at 0.01 µM (24 h, 0.01 µM, 24hrs, read-out: cm.decay.rise.24hrs): 93.3% | activity at 0.01 µM (24 h, 0.01 µM, 24hrs, read-out: cm.spacing.cv.24hrs): 104% | activity at 1 µM (24 h, 1.00 µM, 24hrs, read-out: cm.amp.avg.24hrs): 83.3% | activity at 100 µM (24 h, 100.00 µM, 24hrs, read-out: cm.amp.avg.24hrs): 0% | activity at 100 µM (24 h, 100.00 µM, 24hrs, read-out: cm.amp.cv.24hrs): 0% | activity at 100 µM (24 h, 100.00 µM, 24hrs, read-out: cm.bpm.24hrs): 0% | activity at 100 µM (24 h, 100.00 µM, 24hrs, read-out: cm.decay.rise.24hrs): 0% | activity at 100 µM (24 h, 100.00 µM, 24hrs, read-out: cm.spacing.cv.24hrs): 0%

Clc1ccc(Cl)c(-c2c(Cl)ccc(Cl)c2Cl)c1Cl [(-)-PCB 136, 2,2′,3,3′,6,6′-hexachlorobiphenyl]
cm.amp.avg.90min (0.01 µM, 90min): 93.19 | cm.amp.cv.90min (0.01 µM, 90min): 114.99 | cm.bpm.90min (0.01 µM, 90min): 99.06 | cm.decay.rise.90min (0.01 µM, 90min): 100.18 | cm.spacing.cv.90min (0.01 µM, 90min): 110.22 | cm.amp.avg.24hrs (0.01 µM, 24hrs): 96.89 | cm.amp.cv.24hrs (0.01 µM, 24hrs): 99.89 | cm.bpm.24hrs (0.01 µM, 24hrs): 97.37 | cm.decay.rise.24hrs (0.01 µM, 24hrs): 110.34 | cm.spacing.cv.24hrs (0.01 µM, 24hrs): 99.92 | cm.amp.avg.90min (0.10 µM, 90min): 107.52 | cm.amp.cv.90min (0.10 µM, 90min): 110.59 | cm.bpm.90min (0.10 µM, 90min): 101.57 | cm.decay.rise.90min (0.10 µM, 90min): 100.78 | cm.spacing.cv.90min (0.10 µM, 90min): 107.82 | cm.amp.avg.24hrs (0.10 µM, 24hrs): 74.13 | cm.amp.cv.24hrs (0.10 µM, 24hrs): 32.34 | cm.bpm.24hrs (0.10 µM, 24hrs): 44.87 | cm.decay.rise.24hrs (0.10 µM, 24hrs): 55.66 | cm.spacing.cv.24hrs (0.10 µM, 24hrs): 50.62 | cm.amp.avg.90min (1.00 µM, 90min): 95.68 | cm.amp.cv.90min (1.00 µM, 90min): 133.10 | cm.bpm.90min (1.00 µM, 90min): 102.82 | cm.decay.rise.90min (1.00 µM, 90min): 105.32 | cm.spacing.cv.90min (1.00 µM, 90min): 97.68 | cm.amp.avg.24hrs (1.00 µM, 24hrs): 66.49 | cm.amp.cv.24hrs (1.00 µM, 24hrs): 35.31 | cm.bpm.24hrs (1.00 µM, 24hrs): 50.60 | cm.decay.rise.24hrs (1.00 µM, 24hrs): 50.54 | cm.spacing.cv.24hrs (1.00 µM, 24hrs): 53.09 | cm.amp.avg.90min (10.00 µM, 90min): 76.03 | cm.amp.cv.90min (10.00 µM, 90min): 119.24 | cm.bpm.90min (10.00 µM, 90min): 115.36 | cm.decay.rise.90min (10.00 µM, 90min): 88.64 | cm.spacing.cv.90min (10.00 µM, 90min): 116.95 | cm.amp.avg.24hrs (10.00 µM, 24hrs): 43.21 | cm.amp.cv.24hrs (10.00 µM, 24hrs): 38.97 | cm.bpm.24hrs (10.00 µM, 24hrs): 43.91 | cm.decay.rise.24hrs (10.00 µM, 24hrs): 43.15 | cm.spacing.cv.24hrs (10.00 µM, 24hrs): 54.11 | cm.amp.avg.90min (100.00 µM, 90min): 0.00 | cm.amp.cv.90min (100.00 µM, 90min): 0.00 | cm.bpm.90min (100.00 µM, 90min): 0.00 | cm.decay.rise.90min (100.00 µM, 90min): 0.00 | cm.spacing.cv.90min (100.00 µM, 90min): 0.00 | cm.amp.avg.24hrs (100.00 µM, 24hrs): 0.00 | cm.amp.cv.24hrs (100.00 µM, 24hrs): 0.00 | cm.bpm.24hrs (100.00 µM, 24hrs): 0.00 | cm.decay.rise.24hrs (100.00 µM, 24hrs): 0.00 | cm.spacing.cv.24hrs (100.00 µM, 24hrs): 0.00
